Results on ten molecules are retold here after patent US20230069722A1, “TUBULYSINS AND PROTEIN-TUBULYSIN CONJUGATES” (priority 2020, published 2023).

The structures appear in SMILES notation. pIC50: −log10 of the molar value. Read-outs that look alike come from different tables or passages of the source.

In one test the test system is HCT15 cells. Nature of the test: MDR cell based killing assay, HCT15 cells with or without Verapamil (CellTiter-Glo). Also on record: species or system human. The following applies: for pIC50: Homo sapiens; for HCT-15 with verapamil Ratio to Xa = H / HCT-15 Ratio to Xa = H: IC50 ratio to parent payload with Xa = H; for HCT-15 Ratio to Xa = H: without verapamil. In a few lines:
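CellTiter-Glo luminescence after 5-day exposure gave viability of 1000 HCT15 cells per well, grown in RPMI/10% FBS ± 5 ug/mL Verapamil. Payload tested from 100 nM down to 15 pM in threefold steps; four-parameter logistic IC50 in molar; MDR shift expressed as −Verapamil/+Verapamil IC50 ratio.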
(In general: In ATP-based viability assays light output follows the ATP content of the culture.)

Test [1] deals with SK-BR-3 human breast adenocarcinoma cell line. Nature of the test: SK-BR-3 anti-proliferation / cell kill assay (CellTiter-Glo, 144 hrs). Conditions: for pIC50: Homo sapiens, SK-BR-3, read-out: SK-BR-3 IC50; for SK-BR-3 Ratio to Xa = H: IC50 ratio to parent payload with Xa = H. It counts as cell-based. The protocol:
Anti-proliferation assays were performed using a SK-BR-3 human breast adenocarcinoma (pleural effusion) cell line. The cells were grown in McCoy's 5a Medium supplemented with 10% FBS, penicillin/streptomycin and L-glutamine. Cells were seeded 1000/well in 96-well plate in 80ul complete growth media one day prior to adding ADCs and incubated at 37° C. 5% CO2 overnight.
The ADCs were 1:3 serially diluted 10 points in assay media (Opti-MEM+0.1% BSA). The concentrations of the testing ADCs cover the range of 1 nM to ˜1000 nM and also starting from different concentrations based on the cell killing potency in order to see EC50 covers, leaving the last well (10th) as blank (no ADC or compound). ADCs were first 1:3 serially diluted 10 points in DMSO starting from […] (the starting concentration of each ADC is different according to the EC50s), leaving the last well as blank (containing only DMSO). 10 μl DMSO-diluted compound was transferred to 990 μl assay media (Opti-MEM+0.1% BSA) in a 96-well deep well dilution plate. 20 μl assay media-diluted ADC was added to cells. Cells were incubated at 37° C. […] for 6 days (144 hrs). Plates were developed by adding 100 μl CTG reagent/well to the cells CellTiter-Glo®, from Promega, Cat. No G7573), shaken at room temperature for 10 min, sealed with white adhesive bottom seal and luminescence was read with Envision. Cell kill %=[1−(T144sample−T144blank)/(T144DMSO−T144blank)]×100%, wherein T144 is the data at 144 hours.
The table below provides the drug-antibody ratios (DARs) for conjugates 1-37, along with the EC50 results from the SKBR assays for the same conjugates. The following linker-payloads (from Table P1) were prepared as described in PCT/US2019/068185, the content of which is hereby incorporated by reference in its entirety: LP4-Ve, LP4-Ve, LP25-Ve, LP25-Ve, LP26-Ve, LP26-Ve, LP17-Ve, LP13-Ve, LP19-Ve, LP2-Ve, LP21-Ve, LP6-Vb, LP24-Vb, LP23-Vb, and LP15-VIh.

The mark [2] stands for this setting: HCT-15, read-out: HCT-15 with verapamil IC50.

For orientation: pIC50 means the IC50 on a negative log10 scale, so that one unit is a factor of ten. Regarding `CCCCCCN(C(=O)[C@@H](NC(=O)[C@H]1CCCCN1)[C@@H](C)CC)[C@H](C[C@@H](OC(C)=O)c1nc(C(=O)N[C@@H](Cc2ccc(NC(=O)CN)c(F)c2)CC(C)(C)C(=O)O)cs1)C(C)C` [Compound P27, (4S)-4-({2-[(1R,3R)-1-(acetyloxy)-3-[(2S,3S)—N-hexyl-3-methyl-2-[(2R)-piperidin-2-ylformamido]pentanamido]-4-methylpentyl]-1,3-thiazol-4-yl}formamido)-5-[4-(2-aminoacetamido)-3-fluorophenyl]-2,2-dimethylpentanoic Acid], in the test with HCT15 cells (HCT-15, read-out: HCT-15 IC50), the pIC50 was 8.83. Further, in the test with HCT15 cells (setting [2]), the pIC50 was 10.05. In the test with HCT15 cells, the “HCT-15 with verapamil Ratio to Xa = H” value is 3.8x and the “HCT-15 Ratio to Xa = H” value was 6.4x. Besides, in test [1], the pIC50 is 9.96 and the “SK-BR-3 Ratio to Xa = H” value is given as 3.9x.
For the molecule `CCCCCCN(C(=O)[C@@H](NC(=O)[C@H]1CCCCN1C)[C@@H](C)CC)[C@H](C[C@@H](O)c1nc(C(=O)N[C@@H](Cc2ccc(NC(=O)CN)c(F)c2)CC(C)(C)C(=O)O)cs1)C(C)C` [Compound P24, (4S)-5-[4-(2-aminoacetamido)-3-fluorophenyl]-4-({2-[(1R,3R)-3-[(2S,3S)—N-hexyl-3-methyl-2-{[(2R)-1-methylpiperidin-2-yl]formamido}pentanamido]-1-hydroxy-4-methylpentyl]-1,3-thiazol-4-yl}formamido)-2,2-dimethylpentanoic Acid], the negative-log IC50 (pIC50) with HCT15 cells (HCT-15, read-out: HCT-15 IC50) was 7.81. In addition, the pIC50 in the test on HCT15 cells (setting [2]) was 9.09. Besides, in the test on HCT15 cells, the “HCT-15 with verapamil Ratio to Xa = H” value is listed as 3.2x and the “HCT-15 Ratio to Xa = H” value came out at 5.2x. For the same molecule, in test [1], the pIC50 is 9.07 and the “SK-BR-3 Ratio to Xa = H” value is listed as 22x.
Regarding `CCCCCCN(C(=O)[C@@H](NC(=O)[C@H]1CCCCN1C)[C@@H](C)CC)[C@H](C[C@@H](OCC)c1nc(C(=O)N[C@@H](Cc2ccc(NC(=O)CN)c(F)c2)CC(C)(C)C(=O)O)cs1)C(C)C` [Compound P26, (4S)-5-[4-(2-aminoacetamido)-3-fluorophenyl]-4-({2-[(1R,3R)-1-ethoxy-3-[(2S,3S)—N-hexyl-3-methyl-2-{[(2R)-1-methylpiperidin-2-yl]formamido}pentanamido]-4-methylpentyl]-1,3-thiazol-4-yl}formamido)-2,2-dimethylpentanoic Acid], the pIC50 with HCT15 cells (HCT-15, read-out: HCT-15 IC50) is 9.60. In addition, in the test with HCT15 cells (setting [2]), the pIC50 was 10.30. Besides, in the test with HCT15 cells, the “HCT-15 with verapamil Ratio to Xa = H” value was found to be 2.8x and the “HCT-15 Ratio to Xa = H” value was 4.9x. Also, in test [1], the pIC50 is 10.30 and the “SK-BR-3 Ratio to Xa = H” value came out at 2.6x.
`CCCCCCN(C(=O)[C@@H](NC(=O)[C@H]1CCCCN1C)[C@@H](C)CC)[C@H](C[C@@H](OC(C)=O)c1nc(C(=O)N[C@@H](Cc2ccc(NC(=O)CN)cc2)CC(C)(C)C(=O)O)cs1)C(C)C` [Compound P28, (4S)-4-({2-[(1R,3R)-1-(acetyloxy)-3-[(2S,3S)—N-hexyl-3-methyl-2-{[(2R)-1-methylpiperidin-2-yl]formamido}pentanamido]-4-methylpentyl]-1,3-thiazol-4-yl}formamido)-5-[4-(2-aminoacetamido)phenyl]-2,2-dimethylpentanoic Acid]: the pIC50 is 9.77 with HCT15 cells (HCT-15, read-out: HCT-15 IC50); 9.96 with HCT15 cells (setting [2]); 10.52 in test [1]. In the test on HCT15 cells, the “HCT-15 with verapamil Ratio to Xa = H” value worked out at 5.8x. Also, the “HCT-15 Ratio to Xa = H” value in the test on HCT15 cells was found to be 6.9x. Besides, the “SK-BR-3 Ratio to Xa = H” value in test [1] turned out to be 2.5x.
For `CCCCCCN(C(=O)[C@@H](NC(=O)[C@H]1CCCCN1)[C@@H](C)CC)[C@H](C[C@@H](OCC)c1nc(C(=O)N[C@@H](Cc2ccc(NC(=O)CN)cc2)CC(C)(C)C(=O)O)cs1)C(C)C` [Compound P32, (4S)-5-[4-(2-aminoacetamido)phenyl]-4-({2-[(1R,3R)-1-ethoxy-3-[(2S,3S)—N-hexyl-3-methyl-2-[(2R)-piperidin-2-ylformamido]pentanamido]-4-methylpentyl]-1,3-thiazol-4-yl}formamido)-2,2-dimethylpentanoic Acid], the pIC50 is less than 7.00 with HCT15 cells (HCT-15, read-out: HCT-15 IC50); less than 7.00 in the test on HCT15 cells (setting [2]); less than 9.00 in test [1].
Regarding `CCCCCCN(C(=O)[C@@H](NC(=O)[C@H]1CCCCN1C)[C@@H](C)CC)[C@H](C[C@@H](OCC)c1nc(C(=O)N[C@@H](Cc2ccc(NC(=O)CN)cc2)CC(C)(C)C(=O)O)cs1)C(C)C` [Compound P31, (4S)-5-[4-(2-aminoacetamido)phenyl]-4-({2-[(1R,3R)-1-ethoxy-3-[(2S,3S)—N-hexyl-3-methyl-2-{[(2R)-1-methylpiperidin-2-yl]formamido}pentanamido]-4-methylpentyl]-1,3-thiazol-4-yl}formamido)-2,2-dimethylpentanoic Acid], the pIC50 in the test with HCT15 cells (HCT-15, read-out: HCT-15 IC50) is 9.09; with HCT15 cells (setting [2]), 9.54; in test [1] it was 10.15. In addition, the “HCT-15 with verapamil Ratio to Xa = H” value in the test with HCT15 cells was found to be 4.3x. The “HCT-15 Ratio to Xa = H” value in the test with HCT15 cells was determined as 9.7x. Further, the “SK-BR-3 Ratio to Xa = H” value in test [1] worked out at 2.4x.
Consider `CCCCCCN(C(=O)[C@@H](NC(=O)[C@H]1CCCCN1C)[C@@H](C)CC)[C@H](C[C@@H](OC(C)=O)c1nc(C(=O)N[C@@H](Cc2ccc(NC(=O)CN)c(F)c2)CC(C)(C)C(=O)O)cs1)C(C)C` [Compound P25, (4S)-4-({2-[(1R,3R)-1-(acetyloxy)-3-[(2S,3S)—N-hexyl-3-methyl-2-{[(2R)-1-methylpiperidin-2-yl]formamido}pentanamido]-4-methylpentyl]-1,3-thiazol-4-yl}formamido)-5-[4-(2-aminoacetamido)-3-fluorophenyl]-2,2-dimethylpentanoic Acid], for which the pIC50 in the test on HCT15 cells (HCT-15, read-out: HCT-15 IC50) is 10.10; in the test on HCT15 cells (setting [2]), 10.40; in test [1], 10.52. Also, the “HCT-15 with verapamil Ratio to Xa = H” value in the test on HCT15 cells is 4.0x. Also, the “HCT-15 Ratio to Xa = H” value in the test on HCT15 cells is on record as 4.0x. The “SK-BR-3 Ratio to Xa = H” value in test [1] stood at 1.9x.
Turning to `CCCCCCN(C(=O)[C@@H](NC(=O)[C@H]1CCCCN1C)[C@@H](C)CC)[C@H](C[C@@H](OC(C)=O)c1nc(C(=O)N[C@@H](Cc2ccc(NCCN)cc2)CC(C)(C)C(=O)O)cs1)C(C)C` [Compound P30, (4S)-4-({2-[(1R,3R)-1-(acetyloxy)-3-[(2S,3S)—N-hexyl-3-methyl-2-{[(2R)-1-methylpiperidin-2-yl]formamido}pentanamido]-4-methylpentyl]-1,3-thiazol-4-yl}formamido)-5-{4-[(2-aminoethyl)amino]phenyl}-2,2-dimethylpentanoic Acid], the pIC50 was 8.58 in the test on HCT15 cells (HCT-15, read-out: HCT-15 IC50); 9.38 in the test with HCT15 cells (setting [2]); 9.35 in test [1]. For the same molecule, in the test on HCT15 cells, the “HCT-15 with verapamil Ratio to Xa = H” value came out at 22x. Also, the “HCT-15 Ratio to Xa = H” value with HCT15 cells is 155x. Also, the “SK-BR-3 Ratio to Xa = H” value in test [1] is reported as 34x.
Turning to `CCCCCCN(C(=O)[C@@H](NC(=O)[C@H]1C[C@H](C)CCN1C)[C@@H](C)CC)[C@H](C[C@@H](OC(C)=O)c1nc(C(=O)N[C@@H](Cc2ccc(N)c(F)c2)CC(C)(C)C(=O)O)cs1)C(C)C` [Compound P13, (4S)-4-({2-[(1R,3R)-1-(acetyloxy)-3-[(2S,3S)-2-{[(2R,4R)-1,4-dimethylpiperidin-2-yl]formamido}-N-hexyl-3-methylpentanamido]-4-methylpentyl]-1,3-thiazol-4-yl}formamido)-5-(4-amino-3-fluorophenyl)-2,2-dimethylpentanoic Acid], the negative logarithm of the IC50 (pIC50) in the test with HCT15 cells (HCT-15, read-out: HCT-15 IC50) is 9.82; in the test with HCT15 cells (setting [2]) it was 9.89.
`CCCCCCN(C(=O)[C@@H](NC(=O)[C@H]1C[C@H](C)CCN1)[C@@H](C)CC)[C@H](C[C@@H](OCC)c1nc(C(=O)N[C@@H](Cc2ccc(N)c(F)c2)CC(C)(C)C(=O)O)cs1)C(C)C` [Compound P17, (4S)-5-(4-amino-3-fluorophenyl)-4-({2-[(1R,3R)-1-ethoxy-3-[(2S,3S)—N-hexyl-3-methyl-2-{[(2R,4R)-4-methylpiperidin-2-yl]formamido}pentanamido]-4-methylpentyl]-1,3-thiazol-4-yl}formamido)-2,2-dimethylpentanoic Acid]: the pIC50 in the test on HCT15 cells (HCT-15, read-out: HCT-15 IC50) is 8.29; with HCT15 cells (setting [2]), 9.17.
